Source: US20090203716A1, “Pyrimidine low molecular weight ligands for modulating hormone receptors” (The Government of the United States of America as …, priority 2006, published 2009)

Assays:
human LHCG receptor = target: T1, human LHCG receptor (Homo sapiens, UniProt P22888); assay: intracellular cAMP accumulation, agonism at LHCGR stably expressed in HEK EM 293 cells; type: cell-based; settings: full activation of LHCGR by LH set at 100%
T1 construct: expressed in transfected cells
Protocol: With reference to Table 1, exemplary disclosed compounds were evaluated against human TSH receptor and human LHCG receptor that were stably expressed in HEK 293 EM cells as previously described by Libert et al. (Biochem. Biophys. Res. Commun. 1989, 165, 1250-1255); and by Schulz et al. (Mol. Endocrinol. 1999, 13, 181-190). Cell surface expression of TSH receptor and LHCG receptor were determined via FACS analysis (Kleinau, G.; Jäschke, H.; Neumann, S.; Lättig, S.; Paschke, R.; Krause, G. J. Biol. Chem. 2004, 279, 51590-51600).
Following aspiration of the medium after incubation with compounds, cells were lysed using lysis buffer 1 of the cAMP Biotrak Enzymeimmunoassay (EIA) System (Amersham Biosciences). The cAMP content of the cell lysate was determined using the manufacturer's protocol. […] The potency (EC50) was obtained from dose response curves (0-100 μM compound) by data analysis with GraphPad Prism 4 for Windows. […] The data are presented as mean±SEM of two independent experiments, each performed in duplicate.
(§1) Transiently transfected cells were cultured for 48 hours before the cAMP assay. HEK-EM 293 cells stably expressing TSHR, LHCGR or FSHR were seeded into 24-well plates with a density of 2.2×10^5 cells/well 24 hours before the cAMP assay. After removal of growth medium, cells were incubated for 1 hour in HBSS (Cellgro) with 10 mM HEPES (Cellgro) containing 1 mM 3-isobutyl-1-methylxanthine (IBMX) (Sigma) and the ligand of interest in a humidified 5% CO2 incubator at 37° C. The intracellular cAMP content was determined with the cAMP Biotrak Enzymeimmunoassay (EIA) System (GE Healthcare). Data were analyzed using GraphPad Prism 4 for Windows. Receptor expression was measured as described in Jaschke et al., J Biol Chem 281:9841-9844.

TSHR = TSHR (Homo sapiens, UniProt P16473); assay: competition with 125I-labeled TSH for binding to TSHR
TSHR mutant Y7.42A = target: T2, TSHR mutant Y7.42A (Homo sapiens, UniProt P16473, Y667A); assay: cAMP production in HEK-EM 293 cells transiently expressing TSHR mutant Y7.42A; type: cell-based; settings: 30 μM compound
T2 construct: expressed in transfected cells; host or cells: HEK-EM 293 (transient, FuGENE 6)
Protocol: HEK-EM 293 cells were grown in Dulbecco's modified Eagle's Medium (DMEM) supplemented with 10% fetal bovine serum, 100 units/ml penicillin and 10 μg/ml streptomycin (Life Technologies Inc.) at 37° C. in a humidified 5% CO2 incubator. Cells were transiently transfected with wild type TSHR and mutant receptors in 24-well plates (7.5×10^4 cells per well) with 0.4 μg DNA/well using FuGENE™ 6 reagent (Roche) according to the manufacturer's protocol.
The M9 mutant is described in Jaschke et al., J Biol Chem 281:9841-9844. The Y7.42A mutant was introduced into hTSHR-pcDNA3.1 via the QuickChange XL Site-Directed Mutagenesis kit (Stratagene). The construct was verified by sequencing (MWG Biotech).
as §1, with “After removal of growth medium, cells were incubated for 1 hour in HBSS (Cellgro) with 10 mM HEPES (Cellgro) containing 1 mM 3-isobutyl-1-methylxanthine (IBMX) (Sigma) and the ligand of interest in a humidified 5% CO2 incubator at 37° C.” left out

[1] = system: thyroperoxidase (TPO) mRNA expression in human thyrocytes; assay: TPO mRNA expression in primary cultures of human thyrocytes; type: cell-based; set-up: inhibition of TSH-stimulated increase of TPO mRNA expression: dose or concentration left out as unconfirmed
Protocol: Thyroid tissue samples were obtained through the NIH Clinical Center during surgery for unrelated reasons. Patients provided informed consent on an IRB approved protocol and materials were received anonymously via approval of research activity through the Office of Human Subjects Research. The specimens were maintained in HBSS on ice and isolation of cells was initiated within 4 hours after surgery. All preparations were performed under sterile conditions. Tissue samples were minced into small pieces by fine surgical forceps and scissors in a 10 cm dish with a small volume of HBSS. Tissue pieces were transferred to a 15 ml tube (Falcon) and washed at least 3 times with HBSS. Afterward, tissue pieces were incubated with HBSS containing 3 mg/ml Collagenase Type IV (Gibco). Enzymatic digestion proceeded for 30 minutes or longer with constant shaking in a water bath at 37° C. until a suspension of isolated cells was obtained. After centrifugation for 5 minutes at 1000 rpm, the supernatant was removed and cells were resuspended in 10 ml DMEM with 10% FBS. Cells were plated in 10 cm tissue culture dishes and incubated at 37° C. in a humidified 5% CO2 incubator. After 24 hours, the supernatant containing non-adherent cells was removed. The primary cultures of thyroid cells formed a confluent monolayer within 5-7 days. […]

T2 sequence (P16473 21-764 Y667A): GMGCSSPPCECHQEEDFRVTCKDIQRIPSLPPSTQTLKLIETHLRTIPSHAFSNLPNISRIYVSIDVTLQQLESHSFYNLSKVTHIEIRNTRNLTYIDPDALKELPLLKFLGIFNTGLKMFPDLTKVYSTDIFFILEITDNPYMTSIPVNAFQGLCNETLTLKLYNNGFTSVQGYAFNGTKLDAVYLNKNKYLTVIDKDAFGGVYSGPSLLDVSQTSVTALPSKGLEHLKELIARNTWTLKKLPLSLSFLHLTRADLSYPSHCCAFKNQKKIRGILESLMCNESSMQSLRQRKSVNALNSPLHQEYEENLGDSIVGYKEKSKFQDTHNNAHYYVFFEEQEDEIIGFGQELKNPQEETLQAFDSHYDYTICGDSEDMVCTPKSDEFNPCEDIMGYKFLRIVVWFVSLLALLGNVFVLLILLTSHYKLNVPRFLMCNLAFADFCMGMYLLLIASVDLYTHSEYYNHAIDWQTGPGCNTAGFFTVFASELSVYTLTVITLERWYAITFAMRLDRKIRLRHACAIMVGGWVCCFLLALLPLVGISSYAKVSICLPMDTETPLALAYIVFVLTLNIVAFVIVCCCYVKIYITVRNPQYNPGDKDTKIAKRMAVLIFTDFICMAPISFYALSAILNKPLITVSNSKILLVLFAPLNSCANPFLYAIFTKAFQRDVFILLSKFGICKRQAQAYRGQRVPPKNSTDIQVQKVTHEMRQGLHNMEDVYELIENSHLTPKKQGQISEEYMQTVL
TSHR, sequence (P16473 21-764): as the sequence (P16473 21-764 Y667A) above, with A647Y counted along it
T1 sequence (P22888 27-699): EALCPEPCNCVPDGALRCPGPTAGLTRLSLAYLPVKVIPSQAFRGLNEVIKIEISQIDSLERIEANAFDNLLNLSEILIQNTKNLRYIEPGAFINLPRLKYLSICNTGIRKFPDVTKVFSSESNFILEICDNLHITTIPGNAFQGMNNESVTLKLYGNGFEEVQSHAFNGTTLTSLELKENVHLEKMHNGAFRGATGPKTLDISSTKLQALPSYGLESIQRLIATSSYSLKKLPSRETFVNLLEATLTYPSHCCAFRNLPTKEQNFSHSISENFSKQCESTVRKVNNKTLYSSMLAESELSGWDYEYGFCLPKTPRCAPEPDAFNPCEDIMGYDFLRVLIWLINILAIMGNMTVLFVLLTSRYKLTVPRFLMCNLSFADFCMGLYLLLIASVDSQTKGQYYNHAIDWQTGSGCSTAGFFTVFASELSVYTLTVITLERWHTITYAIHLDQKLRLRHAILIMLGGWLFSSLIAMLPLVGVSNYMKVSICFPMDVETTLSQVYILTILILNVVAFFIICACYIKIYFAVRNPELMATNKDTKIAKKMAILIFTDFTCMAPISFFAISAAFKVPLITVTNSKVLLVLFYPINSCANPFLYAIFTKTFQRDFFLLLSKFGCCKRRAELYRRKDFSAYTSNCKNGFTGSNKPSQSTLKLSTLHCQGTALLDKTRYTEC

SMILES: COC/C=C/c1ccc(-c2nc(SC)nc3sc(C(=O)NC(C)(C)C)c(N)c23)cc1 [Compound 52]
- activity at LHCGR compared to full activation by LH (human LHCG receptor): 17.25±2.25%
- competition with 125I-labeled TSH for binding to TSHR (TSHR): does not compete
- cAMP production, fold over TSHR basal activity, Y7.42A (TSHR mutant Y7.42A): 3.2±0.9 fold
- inhibition of TSH-stimulated increase of TPO mRNA expression ([1]; 1 hour pretreatment, 24 hours with TSH, thyrocytes from two donors): inhibited
- inhibition of TsAb-stimulated TPO mRNA expression ([1]; Graves' disease sera 1:50, 10 μM compound, 24 hours): inhibited
